From US6420395B1, “Azacyclooctane and heptane derivatives, their preparation and use in therapy” (Neurosearch A/S, priority 1997, dated 2002)
Counter-ions that a name gives are not always drawn. Like-named read-outs stand apart in the source and are kept apart here.

Experiments:
[1] = target: nicotinic ACh receptors comprised of α4 and β2 subunits (3H-cytisine binding site) (Rattus norvegicus, UniProt P09483+P12390); assay: In vitro inhibition of 3H-cytisine binding
Procedure: In vitro inhibition of ^3H-cytisine binding
The predominant subtype with high affinity for nicotine is comprised of α4 and β2 subunits. nAChRs of the latter type can selectively be labelled by the nicotine agonist ^3H-cytisine.
Preparations are performed at 0-4° C. unless otherwise indicated. […] The homogenate is centrifuged at 27,000×g for 10 min. The supernatant is discarded and the pellet is resuspended in fresh buffer and centrifuged a second time. The final pellet is resuspended in fresh buffer (35 ml per g of original tissue) and used for binding assays.
Aliquots of 500 μl homogenate are added to 25 μl of test solution and 25 μl of ^3H-cytisine (1 nM, final concentration), mixed and incubated for 90 min at 2° C. Non-specific binding is determined using (−)-nicotne (100 μM, final concentration). After incubation the samples are added 5 ml of ice-cold buffer and poured directly onto Whatman GF/C glass fibre filters under suction and immediately washed with 2×5 ml ice-cold buffer. The amount of radioactivity on the filters is determined by conventional liquid scintillation counting. Specific binding is total binding minus non-specific binding.

[2] = target: nAChR formed by the α7 subunit (3H-α-bungarotoxin binding site) (Rattus norvegicus, UniProt Q05941); assay: biochemical
nAChR formed by the α7 subunit (3H-α-bungarotoxin binding site), sequence (Q05941 23-502): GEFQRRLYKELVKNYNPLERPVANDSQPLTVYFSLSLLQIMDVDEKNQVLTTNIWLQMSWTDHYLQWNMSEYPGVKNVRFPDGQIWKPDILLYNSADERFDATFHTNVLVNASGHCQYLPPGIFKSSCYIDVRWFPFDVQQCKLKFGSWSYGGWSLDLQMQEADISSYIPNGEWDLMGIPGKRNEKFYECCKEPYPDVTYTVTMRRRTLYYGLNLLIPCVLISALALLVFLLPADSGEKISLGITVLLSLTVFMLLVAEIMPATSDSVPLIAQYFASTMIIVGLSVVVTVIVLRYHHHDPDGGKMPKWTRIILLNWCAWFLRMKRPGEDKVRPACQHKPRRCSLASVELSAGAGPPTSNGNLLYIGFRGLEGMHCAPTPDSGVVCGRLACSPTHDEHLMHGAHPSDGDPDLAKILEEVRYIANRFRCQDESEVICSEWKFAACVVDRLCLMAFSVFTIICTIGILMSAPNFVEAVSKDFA

[3] = approximate potency relative to morphine; cited from earlier work
[4] = rat cerebral cortex homogenate, 1 nM 3H-cytisine, 90 min at 2° C., read-out: 3H-cytisine IC50
[5] = read-out: 3H-α-bungarotoxin IC50

nicotinic ACh receptors comprised of α4 and β2 subunits (3H-cytisine binding site), sequence (P09483 31-630): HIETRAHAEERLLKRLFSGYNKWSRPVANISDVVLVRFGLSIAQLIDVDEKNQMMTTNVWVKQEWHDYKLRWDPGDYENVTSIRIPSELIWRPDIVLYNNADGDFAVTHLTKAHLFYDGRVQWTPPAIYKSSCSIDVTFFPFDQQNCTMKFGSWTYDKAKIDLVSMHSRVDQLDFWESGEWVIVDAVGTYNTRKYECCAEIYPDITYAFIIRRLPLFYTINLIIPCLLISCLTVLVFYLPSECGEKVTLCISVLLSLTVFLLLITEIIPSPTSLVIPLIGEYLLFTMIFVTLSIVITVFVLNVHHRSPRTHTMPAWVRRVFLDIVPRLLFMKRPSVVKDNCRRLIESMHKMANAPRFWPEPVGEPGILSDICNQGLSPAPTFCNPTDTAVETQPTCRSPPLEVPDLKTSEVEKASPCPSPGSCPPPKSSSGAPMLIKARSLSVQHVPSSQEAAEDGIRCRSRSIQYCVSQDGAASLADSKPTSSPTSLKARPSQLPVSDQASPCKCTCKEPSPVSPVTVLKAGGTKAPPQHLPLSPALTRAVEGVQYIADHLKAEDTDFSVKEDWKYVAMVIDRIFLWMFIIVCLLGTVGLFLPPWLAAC
nicotinic ACh receptors comprised of α4 and β2 subunits (3H-cytisine binding site), sequence (P12390 25-500): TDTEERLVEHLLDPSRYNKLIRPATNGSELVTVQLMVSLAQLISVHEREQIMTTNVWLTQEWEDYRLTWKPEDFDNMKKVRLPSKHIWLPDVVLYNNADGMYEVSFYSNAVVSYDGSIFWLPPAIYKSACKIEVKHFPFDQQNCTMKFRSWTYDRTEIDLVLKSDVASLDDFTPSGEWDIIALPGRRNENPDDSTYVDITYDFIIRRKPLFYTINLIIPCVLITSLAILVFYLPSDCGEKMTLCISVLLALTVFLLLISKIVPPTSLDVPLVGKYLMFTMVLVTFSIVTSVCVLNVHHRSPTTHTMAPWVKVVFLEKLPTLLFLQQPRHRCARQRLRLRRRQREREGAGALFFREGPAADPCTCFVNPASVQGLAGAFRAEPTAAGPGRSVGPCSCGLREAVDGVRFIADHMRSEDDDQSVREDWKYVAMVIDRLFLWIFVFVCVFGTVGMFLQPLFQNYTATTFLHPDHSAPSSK

`CCSc1cncc(C2CCCCCCN2C)c1` (racemic) [Compound 5b, (R,S)-1-Methyl-2-(5-thioethyl-3-pyridyl)azacyclooctane fumaric acid salt] showed an IC50 [1, 4] of 1950 nM.

`c1cncc(C2=NCCCCCC2)c1` [Compound 1c, 2-(3-Pyridyl)azacyclooct-1-ene] showed an IC50 [2, 5] of 1400 nM and an IC50 [1] of 59 nM.

`c1ccc2ncc(C3CCCCCCN3)cc2c1` (racemic) (as salt: fumaric acid salt) [Compound 3a, (R,S)-1-H-2-(3-quinolinyl)azacyclooctane fumaric acid salt] showed a melting point of 172 to 174 °C.

Compound `CCSc1cncc(C2CCCCCCN2)c1` (racemic) [Compound 6a, (R,S)-1-H-2-(5-thioethyl-3-pyridyl)azacyclooctane] has an IC50 [1, 4] of 1000 nM.

`CN1CCCCCCC1c1cccnc1` (racemic) [Compound 1b, (R,S)-1-Methyl-2-(3-pyridyl)azacyclooctane] gave an IC50 [2, 5] of 67000 nM and an IC50 [1] of 560 nM.

Compound `CCSc1cncc(C2CCCCCCN2C)c1` (racemic) (as salt: fumaric acid salt) [Compound 5b, (R,S)-1-Methyl-2-(5-thioethyl-3-pyridyl)azacyclooctane fumaric acid salt] has a melting point of 143.5 to 145.5 °C.

In the case of `c1ccc2ncc(C3CCCCCCN3)cc2c1` (racemic) [Compound 3a, (R,S)-1-H-2-(3-quinolinyl)azacyclooctane fumaric acid salt], the IC50 [2] is reported as greater than 30000 nM and the IC50 [1, 4] is reported as 1300 nM.

`c1cncc(C2CCCCCCN2)c1` (racemic) [Compound 1a, (R,S)-1-H-2-(3-pyridyl)azacyclooctane fumaric acid salt] gave an IC50 [2, 5] of 2000 nM and an IC50 [1] of 200 nM.

Work on `CCSc1cncc(C2CCCCCN2)c1` (racemic) (as salt: fumaric acid salt) [Compound 5a, (R,S)-1-H-2-(5-thioethyl-3-pyridyl)azacycloheptane fumaric acid salt] yielded a melting point of 159 to 161 °C.

Work on `c1cncc(C2CCCCCCN2)c1` (racemic) (as salt: fumaric acid salt) [Compound 1a, (R,S)-1-H-2-(3-pyridyl)azacyclooctane fumaric acid salt] yielded a melting point of 141 to 142 °C.

For `Clc1ccc(C2CC3CCC2N3)cn1` (centres unmarked) [Epibatidine], the “analgesic potency, times that of morphine” value [3] is given as roughly 500 times.

`CCSc1cncc(C2CCCCCN2)c1` (racemic) [Compound 5a, (R,S)-1-H-2-(5-thioethyl-3-pyridyl)azacycloheptane fumaric acid salt] gave an IC50 [2] greater than 30000 nM and an IC50 [1, 4] of 4300 nM.
